Assays:
[1] = tested on: PC-3 prostate cancer cells; test: PC-3 prostate tumor xenograft; format: in vivo, SCID mice
Procedure: PC-3 prostate cancer cells (2×10^6) were implanted s.c. into SCID mice and allowed to grow until the tumor sizes were approximately 100 mm^3. Tumors were measured bi-weekly with a digital caliper and tumor volumes were calculated as L×W×H. Each group contained 8 animals that were randomized prior to the beginning off the treatments. The results were expressed as mm^3±SEM.
A second prostate cancer model study was conducted in a different tumor model by implanting PC-3 prostate cancer cells. PC-3 cells are also hormone-insensitive but are documented as being slightly more invasive than the DU145 cells. As was described above, the cells were implanted sub-cutaneously in SCID mice and treatments were initiated when the tumors reached a volume of approximately 100 mm^3 (designated day 1). The h16B5 injections were administered i.p. on day 1 at 5 mg/kg and continued twice per week thereafter whereas a single TxT injection at 10 mg/kg was administered i.p. on day 5.

[2] = tested on: PANC-1 cells; test: Transwell Matrigel migration of TGFβ-stimulated pancreatic cancer cells; format: cell-based, human; details: 24 h incubation
Procedure: FIG. 12. H16B5 inhibits the migration of pancreatic cancer cell lines. PANC-1 cells were seeded in serum-free medium in the upper chamber of a 24-well Transwell plate containing a Matrigel barrier. The lower wells were filled with medium containing 10% FBS as a chemo-attractant. After a 24 h incubation in the presence or absence of TGFβ and/or h16B5 (as indicated), the number of cells in the Matrigel layer were stained and counted.
Tumors derived from 4 different human pancreatic cell lines were obtained which were fixed in formalin, embedded in paraffin, and section on glass slides. Immunohistochemistry was conducted with h16B5 antibody to determine if tumors derived from this cancer indication expressed clusterin. The tumors were derived from Aspc-1, BxPC-3, PANC-1, and MiaPaCa-2 all of which were derived from pancreatic cancer patients (ATCC, Manassas, Va.). Paraffin-embedded epithelial pancreatic tumor samples were placed on glass slides and fixed for 15 min at 50° C. Deparaffinization was conducted by treating 2× with xylene followed by dehydration in successive 5 min washes in 100%, 80%, and 70% ethanol. The slides were washed 2× in PBS for 5 min and treated with antigen retrieval solution (citrate-EDTA) to unmask the antigen. […] H16B5-reactive clusterin was detected by incubating with biotin-conjugated human anti-kappa followed by streptavidin-HRP tertiary antibody. […]

[3] = tested on: BRI-JM01 mouse mammary carcinoma cells; test: internalization of fluorescently labelled secreted clusterin; format: cell-based; details: h16B5 10 μg/ml, labelled clusterin 250 ng/ml
Procedure: FIG. 13. Secreted clusterin is internalized in cancer cells. Recombinant human clusteirn was expressed in 293-6E cells, purified, and labelled with Alexa Fluor 488 using a commercial labelling kit (Invitrogen). BRI-JM01 mouse mammary carcinoma cells were seeded on coverslips and treated with 250 ng/ml of labelled secreted clusterin. At the indicated times, the cells were washed with ice-cold PBS and fixed in 2% paraformaledyhyde. The slides were mounted with Antifade Gold and images were generated with a fluorescence microscope.
FIG. 14. H16B5 inhibits the internalization of secreted clusterin in cancer cells. The experiment was performed as described for FIG. 13. H16B5 was added at 10 μg/ml.
In order to begin to address this question, cell-based experiments were undertaken to determine if secreted clusterin interacted with cancer cells directly or via other secreted factors in the cell medium. In order to measure this, secreted clusterin was fluorescently labelled and incubated with BRI-JM01 mouse mammary carcinoma cells. […] As shown, the internalization increases over time in manner that is consistent with a receptor-mediated endocytic pathway. Furthermore, the punctate and perinuclear pattern of staining that results after 24 hours (see white arrows in FIG. 13) that is often observed in proteins that are internalized along the endosomal pathway. […]

[4] = tested on: PC3 tumor cell line; test: invasive growth in Matrigel, PC3; format: cell-based, human; details: 8 μg/mL, up to 3 weeks
Procedure: FIG. 5. Inhibition of h16B5 reduces the invasiveness of human prostate cancer cells. The bottom of 12-well plates was covered with 200 μL Growth factor reduced matrigel (Becton Dickinson). Cells (2.5×10^4) were resuspended in 200 μL matrigel, which was layered on top of this, and finally 500 μL of cell specific growth medium was added on top of the matrigel. h16B5 was added to every layer of matrigel as well as the medium in a concentration of 8 μg/mL. Plates were incubated at 37° C. for up to 3 weeks during which the growth medium (+/−h16B5) was replenished weekly. The arrows indicate the areas of epithelial-like cells.
We then determined whether other cell lines such as the human prostate PC3 and DU145 cell lines, which secrete various levels of endogenous clusterin, could be affected in their invasive behavior and growth by the h16B5.

[5] = tested on: EMT6 cells; test: wound healing (scratch) migration assay; format: cell-based, mouse; details: for activity in the scratch assay relative to the other antibodies: comparison between 16B5 configurations
Procedure: FIG. 4. h16B5 blocks the migration of cancer cell lines.
To test the activity of anti-clusterin antibodies against cancer cell migration, a standard wound healing, or scratch assay, was used. In this assay, EMT6 cells, a mouse mammary carcinoma cell line, was plated at high density and subjected to wounding by the creation of a scratch in the cell layer. At time 0, a wide denuded area is evident that quickly fills up after incubation of the cells at 37 C for 15 h (see upper left-hand panels in FIG. 4).

[6] = target: T1, murine clusterin (Mus musculus, UniProt Q06890); test: immunofluorescence on BR1-JM01 cells; format: binding
T1 construct: murine clusterin that was expressed in BR1-JM01 cells; endogenous in cells; host or cells: BR1-JM01 mouse mammary carcinoma cells
T1 sequence (Q06890 22-448): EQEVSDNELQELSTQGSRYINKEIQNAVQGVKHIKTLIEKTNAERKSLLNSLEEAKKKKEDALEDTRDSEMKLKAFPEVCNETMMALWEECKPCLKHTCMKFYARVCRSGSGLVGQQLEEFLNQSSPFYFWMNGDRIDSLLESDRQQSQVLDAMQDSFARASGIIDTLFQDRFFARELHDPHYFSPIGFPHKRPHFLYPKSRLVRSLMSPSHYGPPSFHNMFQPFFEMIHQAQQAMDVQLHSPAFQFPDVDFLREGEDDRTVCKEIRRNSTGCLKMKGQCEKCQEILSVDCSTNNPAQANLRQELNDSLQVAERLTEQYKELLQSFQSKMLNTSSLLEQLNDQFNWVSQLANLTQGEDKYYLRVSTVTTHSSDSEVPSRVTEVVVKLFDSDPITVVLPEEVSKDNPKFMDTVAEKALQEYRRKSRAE

h16B5: humanized anti-clusterin IgG2 antibody, heavy chain SEQ ID NO.:9 and light chain SEQ ID NO.:10
increase in overall survival ([1]; 5 mg/kg i.p. twice per week): 47% | mice remaining alive ([1]; day 43 (no remaining animals in the control group)): greater than 60% | reduction in average tumor size compared to the control group ([1]; day 43, 5 mg/kg i.p. twice per week): 37% | survival of the animals ([1]; h16B5 in combination with TxT): extended the survival | migration of TGFβ-stimulated cells into the Matrigel [2]: severely inhibited | internalization of secreted clusterin into JM01 cells [3]: blocked | stellate morphology in Matrigel (invasive phenotype) [4]: significantly reduced | migration of cells into the denuded area ([5]; 37 C for 15 h): blockage of migration | activity in the scratch assay relative to the other antibodies [5]: at least as active as the mouse 16B6 | activity in the scratch assay relative to the other antibodies ([5]; listed as humanized 16B5): most effective inhibitor | detection of murine clusterin expressed in BR1-JM01 cells [6]: detected murine clusterin
